Assay: GoMiner gene ontology analysis of differentially regulated genes
Design: species or system human
[1] = Biological process: Bbiological—process unknown, GO 0000004, Total 232
[2] = Biological process: Cell adhesion, GO 0007155, Total 361
[3] = Biological process: Cell death, GO 0008219, Total 272
[4] = Biological process: Cell differentiation, GO 0030154, Total 106
[5] = Biological process: Cell motility, GO 0006928, Total 222
[6] = Biological process: Cell organization and biogenesis, GO 0016043, Total 282
[7] = Biological process: Cell proliferation, GO 0008283, Total 667
[8] = Biological process: Cell-cell signaling, GO 0007267, Total 365
[9] = Biological process: Metabolism, GO 0008152, Total 3192
[10] = Biological process: Response to endogenous stimulus, GO 0009719, Total 134
[11] = Biological process: Response to extracellular stimulus, GO 0009991, Total 10
[12] = Biological process: Response to stress, GO 0006950, Total 501
[13] = Biological process: Signal transduction, GO 0007165, Total 1321
[14] = Biological process: Transport, GO 0006810, Total 873
[15] = Biological process: alcohol metabolism, GO 0006066, Total 151
[16] = Biological process: amine metabolism, GO 0009308, Total 175
[17] = Biological process: amino acid and derivative metabolism, GO 0006519, Total 149
[18] = Biological process: anti-apoptosis, GO 0006916, Total 59
[19] = Biological process: apoptotic program, GO 0008632, Total 26
[20] = Biological process: biosynthesis, GO 0009058, Total 525
[21] = Biological process: carbohydrate metabolism, GO 0005975, Total 228
[22] = Biological process: catabolism, GO 0009056, Total 450
[23] = Biological process: cell cycle, GO 0007049, Total 442
[24] = Biological process: cell migration, GO 0016477, Total 39
[25] = Biological process: cell surface receptor linked signal transduction, GO 0007166, Total 588
[26] = Biological process: cell—cell adhesion, GO 0016337, Total 124
[27] = Biological process: cytokinesis, GO 0000910, Total 64
[28] = Biological process: cytoplasm organization and biogenesis, GO 0007028, Total 166
[29] = Biological process: electron transport, GO 0006118, Total 150
[30] = Biological process: energy pathways, GO 0006091, Total 158
[31] = Biological process: induction of apoptosis, GO 0006917, Total 83
[32] = Biological process: induction of programmed cell death, GO 0012502, Total 83
[33] = Biological process: intracellular signaling cascade, GO 0007242, Total 444
[34] = Biological process: intracellular transport, GO 0046907, Total 258
[35] = Biological process: ion transport, GO 0006811, Total 320
[36] = Biological process: lipid metabolism, GO 0006629, Total 299
[37] = Biological process: lymphocyte differentiation, GO 0030098, Total 22
[38] = Biological process: nuclear organization and biogenesis, GO 0006997, Total 109
[39] = Biological process: nucleobase, nucleoside, nucleotide and nucleic acid metabolism, GO 0006139, Total 1351
[40] = Biological process: organic acid metabolism, GO 0006082, Total 226
[41] = Biological process: phosphorus metabolism, GO 0006793, Total 423
[42] = Biological process: protein metabolism, GO 0019538, Total 1170
[43] = Biological process: protein transport, GO 0015031, Total 223
[44] = Biological process: regulation of cell proliferation, GO 0042127, Total 175
[45] = Biological process: regulation of metabolism, GO 0019222, Total 32
[46] = Biological process: response to DNA damage stimulus (under Response to endogenous stimulus), GO 0006974, Total 133
[47] = Biological process: response to DNA damage stimulus (under Response to stress), GO 0006974, Total 133
[48] = Biological process: response to abiotic stimulus, GO 0009628, Total 224
[49] = Biological process: response to biotic stimulus, GO 0009607, Total 552
[50] = Biological process: response to external stimulus, GO 0009605, Total 813
[51] = Biological process: response to pest/pathogen/parasite, GO 0009613, Total 287
[52] = Biological process: response to wounding, GO 0009611, Total 173
[53] = Biological process: taxis, GO 0042330, Total 77
[54] = Biological process: vesicle-mediated transport, GO 0016192, Total 167

## Nc1ncn([C@H]2C[C@H](O)[C@@H](CO)O2)c(=O)n1 [5-aza-dC, 5-aza-2′-deoxycytidine]
[1]
  5-aza-dC Down: 2
  5-aza-dC Up: 6
[2]
  5-aza-dC Down: 0
  5-aza-dC Up: 7
[3]
  5-aza-dC Down: 2
  5-aza-dC Up: 15
[4]
  5-aza-dC Down: 1
  5-aza-dC Up: 5
[5]
  5-aza-dC Down: 1
  5-aza-dC Up: 1
[6]
  5-aza-dC Down: 0
  5-aza-dC Up: 12
[7]
  5-aza-dC Down: 11
  5-aza-dC Up: 18
[8]
  5-aza-dC Down: 0
  5-aza-dC Up: 11
[9]
  5-aza-dC Down: 18
  5-aza-dC Up: 78
[10]
  5-aza-dC Down: 1
  5-aza-dC Up: 2
[11]
  5-aza-dC Down: 0
  5-aza-dC Up: 1
[12]
  5-aza-dC Down: 3
  5-aza-dC Up: 21
[13]
  5-aza-dC Down: 6
  5-aza-dC Up: 33
[14]
  5-aza-dC Down: 1
  5-aza-dC Up: 12
[15]
  5-aza-dC Down: 2
  5-aza-dC Up: 4
[16]
  5-aza-dC Down: 1
  5-aza-dC Up: 3
[17]
  5-aza-dC Down: 1
  5-aza-dC Up: 3
[18]
  5-aza-dC Down: 0
  5-aza-dC Up: 5
[19]
  5-aza-dC Down: 1
  5-aza-dC Up: 3
[20]
  5-aza-dC Down: 6
  5-aza-dC Up: 7
[21]
  5-aza-dC Down: 2
  5-aza-dC Up: 4
[22]
  5-aza-dC Down: 2
  5-aza-dC Up: 9
[23]
  5-aza-dC Down: 7
  5-aza-dC Up: 14
[24]
  5-aza-dC Down: 0
  5-aza-dC Up: 1
[25]
  5-aza-dC Down: 2
  5-aza-dC Up: 14
[26]
  5-aza-dC Down: 0
  5-aza-dC Up: 1
[27]
  5-aza-dC Down: 2
  5-aza-dC Up: 0
[28]
  5-aza-dC Down: 0
  5-aza-dC Up: 1
[29]
  5-aza-dC Down: 2
  5-aza-dC Up: 4
[30]
  5-aza-dC Down: 2
  5-aza-dC Up: 1
[31]
  5-aza-dC Down: 0
  5-aza-dC Up: 3
[32]
  5-aza-dC Down: 0
  5-aza-dC Up: 3
[33]
  5-aza-dC Down: 2
  5-aza-dC Up: 10
[34]
  5-aza-dC Down: 1
  5-aza-dC Up: 6
[35]
  5-aza-dC Down: 0
  5-aza-dC Up: 2
[36]
  5-aza-dC Down: 1
  5-aza-dC Up: 4
[37]
  5-aza-dC Down: 0
  5-aza-dC Up: 3
[38]
  5-aza-dC Down: 0
  5-aza-dC Up: 11
[39]
  5-aza-dC Down: 6
  5-aza-dC Up: 41
[40]
  5-aza-dC Down: 1
  5-aza-dC Up: 3
[41]
  5-aza-dC Down: 5
  5-aza-dC Up: 9
[42]
  5-aza-dC Down: 9
  5-aza-dC Up: 27
[43]
  5-aza-dC Down: 1
  5-aza-dC Up: 7
[44]
  5-aza-dC Down: 3
  5-aza-dC Up: 8
[45]
  5-aza-dC Down: 0
  5-aza-dC Up: 1
[46]
  5-aza-dC Down: 1
  5-aza-dC Up: 2
[47]
  5-aza-dC Down: 1
  5-aza-dC Up: 2
[48]
  5-aza-dC Down: 0
  5-aza-dC Up: 8
[49]
  5-aza-dC Down: 1
  5-aza-dC Up: 26
[50]
  5-aza-dC Down: 2
  5-aza-dC Up: 30
[51]
  5-aza-dC Down: 1
  5-aza-dC Up: 17
[52]
  5-aza-dC Down: 1
  5-aza-dC Up: 14
[53]
  5-aza-dC Down: 0
  5-aza-dC Up: 7
[54]
  5-aza-dC Down: 0
  5-aza-dC Up: 2
Cellular component: Cellular—component unknown, GO 0008372, Total 266
  5-aza-dC Down: 2
